Active and inactive are the calls of the source. The calls are words filed in the database; no cut-off is given here.
Biological target: T1, Sex hormone-binding globulin (Homo sapiens) (UniProt P04278)
T1 sequence (whole entry): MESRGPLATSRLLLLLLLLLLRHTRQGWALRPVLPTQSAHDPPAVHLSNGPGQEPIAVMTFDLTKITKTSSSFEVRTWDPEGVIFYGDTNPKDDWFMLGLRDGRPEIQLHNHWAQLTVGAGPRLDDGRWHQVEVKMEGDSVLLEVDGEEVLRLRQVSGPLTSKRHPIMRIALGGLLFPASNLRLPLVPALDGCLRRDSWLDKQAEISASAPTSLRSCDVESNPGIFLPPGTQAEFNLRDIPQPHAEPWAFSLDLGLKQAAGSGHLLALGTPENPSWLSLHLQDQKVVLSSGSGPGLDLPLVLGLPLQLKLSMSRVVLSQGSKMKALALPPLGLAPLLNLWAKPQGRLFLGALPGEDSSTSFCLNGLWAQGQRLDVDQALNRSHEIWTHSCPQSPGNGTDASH
Assay: Binding affinity to human sex hormone binding globulin

COc1cc([C@@H]2O[C@@H](c3ccc(O)c(OC)c3)[C@H](CO)[C@H]2CO)ccc1O
Activity: Active
